{"source": "patent US4501734A", "about": "“Promotion of absorption of drugs administered through the alimentary system” (priority 1981, dated 1985)", "key": {"duodenum mucosa": {"system": "duodenum mucosa", "experiment": "Observation of the duodenum employed in the experiment for mucosa damage", "assay_type": "in vivo", "details": "rat duodenum employed in the experiment", "description": "(§1) Experimental method A was repeated except that saponins A, B and C were respectively used in a concentration of 5 mg/liter in place of the galenical extract in a solution to be administered.\nExamples according to the above experimental method are shown in the following Examples 6, 7 and 8. […] This may be ascribed to low acute toxicity of the drug absorption promoter of the present invention, as can readily be understood from the fact that the galenicals used in the present invention have been widely accepted as herb medicines or the like."}, "[1]": {"experiment": "Ampicillin blood level after administration with galenical extract by stomach probe (Experimental method B)", "assay_type": "in vivo", "details": "rat", "description": "Rats weighing 200 to 230 g under anesthesia with ether were intubated with polyethylene tube (PE-10) at the femoral artery with ligation. The other end of PE-10 was passed subcutaneously to be led to the cervicodorsal part, at which it was drawn out of the skin and fixed with capping. After restoration of the vulnus at the operated portion (about 24 hours), each rat was provided for the experiment.\nThe test microorganism used was Bacillus subtilis, and the assay was performed by the paper disc method according to The Japan Antibiotic Drug Standards."}, "[2]": {"experiment": "Ampicillin blood level after injection with galenical extract or isolated saponin into rat duodenal loop (Experimental method A)", "details": "in vivo", "description": "Rats weighing 180 to 220 g were anesthetized with 30 mg/kg of pentobarbital sodium and fixed by supination on a water bed made of a metal through which water regulated at a constant temperature of 39° C. was circulated. A duodenal loop of 10 cm length was prepared in a conventional manner with the point 1 cm under the pyloric part of the stomach as the starting point. […] The rats were bled from jugular veins 10, 20, 40, 60, 90, 120, 180 and 240 minutes after injection and activity concentration in the blood in each case was measured according to biological assay.\nThat is, according to The Japan Antibiotic Drug Standards, using Bacillus subtilis as test microorganism, cultivation assay was performed by the paper disc method at 37° C. for 15 to 20 hours.\nThe composition of the solution had the following composition:\nGalenical extract: 2 mg/ml-20 mg/ml\nas §1"}, "[3]": {"experiment": "Ampicillin blood level after suppository with saponin A, B or C (suppository tests)", "assay_type": "in vivo", "details": "rat", "description": "The effectiveness of the saponins A, B and C when they were formulated into suppositories was tested in a method similar to the above Experimental method A.\nThus, rats weighing 180 to 220 g were anesthetized with 30 mg/kg of pentobarbital sodium and fixed by supination on a water bed made of a metal through which water regulated at a constant temperature of 39° C. was circulated. A suppository in a proportion of 1 g/kg of body weight of the rat was inserted through the anus and pushed by a glass bar until it reached the connecting point of the pubes.\nThe suppositories tested had the following compositions:\nSaponin A, B or C: 0.5-2 mg/kg-rat, and\nVehicle*: remainder for giving 1 mg of suppository/kg-rat.\n*Witepsol® produced by Dynamit Novel A.G.\nThus, the assay was performed by the paper disc method according to The Japan Antibiotic Drug Standards using Bacillus subtilis as the test microorganism."}}}
{"smiles": "C[C@@H]1O[C@@H](O[C@H]2[C@H](O[C@H]3CC[C@@]4(C)[C@@H](CC[C@]5(C)[C@@H]4CC=C4[C@@H]6CC(C)(C)CC[C@]6(C(=O)O)CC[C@]45C)[C@]3(C)CO)OC[C@H](O)[C@@H]2O)[C@H](O)[C@H](O[C@@H]2OC[C@H](O)[C@H](O)[C@H]2O)[C@H]1O", "note": "[Saponin A, 3-O-[α-L-arabinopyranosyl-(1→3)-α-L-rhamnopyranosyl-(1→2) -α-L-arabinopyranosyl]-hederagenin]", "values": [{"measurement": "damage of mucosa or abnormality such as hemorrhagic spot of the duodenum", "setting": "duodenum mucosa", "result": "no damage of mucosa (e.g. mucosa ablation) or abnormality such as hemorrhagic spot"}]}
{"smiles": "C[C@@H]1O[C@@H](O[C@H]2[C@H](O[C@H]3CC[C@@]4(C)[C@@H](CC[C@]5(C)[C@@H]4CC=C4[C@@H]6CC(C)(C)CC[C@]6(C(=O)O)CC[C@]45C)[C@]3(C)CO)OC[C@H](O)[C@@H]2O)[C@H](O)[C@H](O[C@@H]2OC[C@@H](O)[C@H](O)[C@H]2O)[C@H]1O", "note": "[Saponin B, 3-O-[β-D-xylopyranosyl-(1→3)-α-L-rhamnopyranosyl-(1→2)-α-L-arabinopyranosyl]-hederagenin]", "values": [{"measurement": "damage of mucosa or abnormality such as hemorrhagic spot of the duodenum", "setting": "duodenum mucosa", "result": "no damage of mucosa (e.g. mucosa ablation) or abnormality such as hemorrhagic spot"}]}
{"smiles": "C[C@@H]1O[C@@H](O[C@H]2[C@H](O[C@H]3CC[C@@]4(C)[C@@H](CC[C@]5(C)[C@@H]4CC=C4[C@@H]6CC(C)(C)CC[C@]6(C(=O)O)CC[C@]45C)[C@]3(C)CO)OC[C@H](O)[C@@H]2O)[C@H](O)[C@H](O[C@@H]2O[C@@H](CO)[C@H](O)[C@H]2O)[C@H]1O", "note": "[Saponin C, 3-O-[α-L-arabinofuranosyl-(1→3)-α-L-rhamnopyranosyl-(1→2)-α-L-arabinopyranosyl]-hederagenin]", "values": [{"measurement": "damage of mucosa or abnormality such as hemorrhagic spot of the duodenum", "setting": "duodenum mucosa", "result": "no damage of mucosa (e.g. mucosa ablation) or abnormality such as hemorrhagic spot"}]}
{"smiles": "CC1(C)S[C@@H]2[C@H](NC(=O)[C@H](N)c3ccccc3)C(=O)N2[C@H]1C(=O)O", "note": "[ampicillin sodium]", "values": [{"measurement": "Concentration in Blood, 10 min. (- Control)", "setting": "[1]; in vivo, po, 25 mg/kg, 10 min", "result": 0.3, "unit": "μg titer/ml"}, {"measurement": "Concentration in Blood, 20 min. (- Control)", "setting": "[1]; in vivo, po, 25 mg/kg, 20 min", "result": 0.6, "unit": "μg titer/ml"}, {"measurement": "Concentration in Blood, 40 min. (- Control)", "setting": "[1]; in vivo, po, 25 mg/kg, 40 min", "result": 1.3, "unit": "μg titer/ml"}, {"measurement": "Concentration in Blood, 60 min. (- Control)", "setting": "[1]; in vivo, po, 25 mg/kg, 1 h", "result": 0.5, "unit": "μg titer/ml"}, {"measurement": "concentration at 10 min", "setting": "[1]; in vivo, po, 25 mg/kg, Concentration in Blood, 10 min. (- Control)", "result": 400, "unit": "ng/mL"}, {"measurement": "concentration at 20 min", "setting": "[1]; in vivo, po, 25 mg/kg, Concentration in Blood, 20 min. (- Control)", "result": 800, "unit": "ng/mL"}, {"measurement": "concentration at 40 min", "setting": "[1]; in vivo, po, 25 mg/kg, Concentration in Blood, 40 min. (- Control)", "result": 1200, "unit": "ng/mL"}, {"measurement": "concentration at 1 h", "setting": "[1]; in vivo, po, 25 mg/kg, Concentration in Blood, 60 min. (- Control)", "result": 800, "unit": "ng/mL"}, {"measurement": "concentration at […]", "setting": "[1]; in vivo, po, 25 mg/kg, Concentration in Blood, 90 min. (- Control)", "result": 300, "unit": "ng/mL"}, {"measurement": "Concentration in Blood, 90 min. (- Control)", "setting": "[1]; stomach probe, ampicillin sodium without extract (Control), 90 min, tr.: trace", "result": "tr."}, {"measurement": "Concentration in Blood, 120 min. (- Control)", "setting": "[1]; stomach probe, ampicillin sodium without extract (Control), 120 min, tr.: trace", "result": "tr."}, {"measurement": "Concentration in Blood, 180 min. (- Control)", "setting": "[1]; stomach probe, ampicillin sodium without extract (Control), 180 min, tr.: trace", "result": "tr."}, {"measurement": "Concentration in Blood, 240 min. (- Control)", "setting": "[1]; stomach probe, ampicillin sodium without extract (Control), 240 min, tr.: trace", "result": "tr."}, {"measurement": "Concentration in Blood, 20 min. (Control)", "setting": "[2]; 20 min", "result": "0.89 ± 0.07", "unit": "μg titer/ml"}, {"measurement": "Concentration in Blood, 40 min. (Control)", "setting": "[2]; 40 min", "result": 1.1, "unit": "μg titer/ml"}, {"measurement": "Concentration in Blood, 240 min. (Control)", "setting": "[2]; 4 h", "result": 0.5, "unit": "μg titer/ml"}, {"measurement": "concentration at 10 min", "setting": "[2]; Concentration in Blood, 10 min. (Control)", "result": 600, "unit": "ng/mL"}, {"measurement": "concentration at 40 min", "setting": "[2]; Concentration in Blood, 40 min. (Control)", "result": 1100, "unit": "ng/mL"}, {"measurement": "concentration at 1 h", "setting": "[2]; Concentration in Blood, 60 min. (Control)", "result": 1200, "unit": "ng/mL"}, {"measurement": "concentration at 3 h", "setting": "[2]; Concentration in Blood, 180 min. (Control)", "result": 500, "unit": "ng/mL"}, {"measurement": "concentration at 4 h", "setting": "[2]; Concentration in Blood, 240 min. (Control)", "result": 500, "unit": "ng/mL"}, {"measurement": "concentration at 5 min", "setting": "[3]; in vivo, 50 mg/kg", "result": "3120 ± 1660", "unit": "ng/mL"}, {"measurement": "concentration at 10 min", "setting": "[3]; in vivo, 50 mg/kg", "result": "3980 ± 1890", "unit": "ng/mL"}, {"measurement": "concentration at 35 min", "setting": "[3]; in vivo, 50 mg/kg", "result": "1910 ± 890", "unit": "ng/mL"}, {"measurement": "concentration at 1 h", "setting": "[3]; in vivo, 50 mg/kg", "result": "930 ± 540", "unit": "ng/mL"}, {"measurement": "Concentration in Blood, 100 min.", "setting": "[3]; suppository, ampicillin sodium 50 mg/kg, 100 min (Table 8A, upper part)", "result": "trace"}]}
